Earlier results on eight compounds are cited in patent US8940275B2, “Nanoparticles based on gadolinium coordination polymers as highly sensitive T1 MRI contrast agents” (Kent State University, priority 2010, dated 2015).

For one data set the following is noted: clinical MRI contrast agents; 1.5 T.
Take `O=C([O-])CN1CCN(CC(=O)[O-])CCN([C@H](CO)[C@H](O)CO)CCN(CC(=O)[O-])CC1.[Gd+3]` (racemic) [Gadovist ®]: the R1 (typical relaxivity value) is 5.3 mM⁻¹ s⁻¹.

On to `CNC[C@H](O)[C@@H](O)[C@H](O)[C@H](O)CO.O=C([O-])CN1CCN(CC(=O)[O-])CCN(CC(=O)O)CCN(CC(=O)[O-])CC1.[Gd+3]` [Dotarem ®], for which the R1 (typical relaxivity value) is 4.2 mM⁻¹ s⁻¹.

Consider `CNC[C@H](O)[C@@H](O)[C@H](O)[C@H](O)CO.CNC[C@H](O)[C@@H](O)[C@H](O)[C@H](O)CO.O=C([O-])CN(CCN(CC(=O)[O-])CC(=O)O)CCN(CC(=O)[O-])CC(=O)O.[Gd+3]` [Magnevist ®], for which the R1 (typical relaxivity value) is 4.3 mM⁻¹ s⁻¹.

As for `CNC[C@H](O)[C@@H](O)[C@H](O)[C@H](O)CO.CNC[C@H](O)[C@@H](O)[C@H](O)[C@H](O)CO.O=C([O-])CN(CCN(CC(=O)[O-])CC(=O)O)CCN(CC(=O)O)C(COCc1ccccc1)C(=O)[O-].[Gd+3]` (stereo not drawn) [MultiHance], the R1 (typical relaxivity value) was 6.7 mM⁻¹ s⁻¹.

As to `CNC(=O)CN(CCN(CCN(CC(=O)[O-])CC(=O)NC)CC(=O)[O-])CC(=O)[O-].[Gd+3]` [Omniscan ®], the R1 (typical relaxivity value) is 4.6 mM⁻¹ s⁻¹.

Regarding `COCCNC(=O)CN(CCN(CCN(CC(=O)[O-])CC(=O)NCCOC)CC(=O)[O-])CC(=O)[O-].[Gd+3]` [OptiMARK], the R1 (typical relaxivity value) is 5.2 mM⁻¹ s⁻¹.

Take `CCOc1ccc(CC(CN(CCN(CC(=O)[O-])CC(=O)[O-])CC(=O)[O-])N(CC(=O)[O-])CC(=O)[O-])cc1.[Gd+3].[Na+].[Na+]` (stereo not drawn) [Primovist]: the R1 (typical relaxivity value) is 7.3 mM⁻¹ s⁻¹.

On to `CC(O)CN1CCN(CC(=O)[O-])CCN(CC(=O)[O-])CCN(CC(=O)[O-])CC1.[Gd+3]` (stereo not drawn) [ProHance ®], for which the R1 (typical relaxivity value) was 4.4 mM⁻¹ s⁻¹.

For another data set the following is noted: commercial agents, field not given.
Take `CNC[C@H](O)[C@@H](O)[C@H](O)[C@H](O)CO.CNC[C@H](O)[C@@H](O)[C@H](O)[C@H](O)CO.O=C([O-])CN(CCN(CC(=O)[O-])CC(=O)O)CCN(CC(=O)[O-])CC(=O)O.[Gd+3]` [Magnevist ®]: the r1 is 4.3 mM⁻¹ s⁻¹.
